Common to all, as to assay type: cell-based
Experiment [1] deals with Staphylococcus aureus. Briefly: In Vitro Vial Test (nutrient broth). Conditions: 168 h; for MIC: read-out: Lowest Effective Concentration.
In experiment [2] the test system is Aspergillus niger. Briefly: In Vitro Vial Test (malt broth). Conditions: 168 h; for MIC: read-out: Lowest Effective Concentration.
Experiment [3] relates to Penicillium italicum. In words: In Vitro Vial Test (malt broth). Conditions: 168 h; for minimal effective concentration: read-out: Lowest Effective Concentration (partial control); for MIC: read-out: Lowest Effective Concentration.
Experiment [4] relates to Escherichia coli. In words: In Vitro Vial Test (nutrient broth). Conditions: 168 h; for minimal effective concentration: read-out: Lowest Effective Concentration (partial control); for MIC: read-out: Lowest Effective Concentration.
The subject of experiment [5] is Brevibacterium ammoniagenes. In words: Detergent Formulation Test. Conditions: washed cotton cloth, compounds at 0.2% in Tide detergent, 37° C.
In experiment [6] the test system is Staphylococcus aureus. Briefly: Detergent Formulation Test. Conditions: washed cotton cloth, compounds at 0.2% in Tide detergent, 37° C.
Experiment [7] deals with Escherichia coli. In words: Soap Plug Test. Conditions: 1% in sodium stearate soap plug, 37° C., 17 hours.
Experiment [8] deals with Escherichia coli. Briefly: Detergent Formulation Test. Conditions: washed cotton cloth, compounds at 0.2% in Tide detergent, 37° C.
Experiment [9] relates to Trichophyton mentagrophytes. In words: Detergent Formulation Test. Conditions: washed cotton cloth, compounds at 0.2% in Tide detergent, 37° C.
Experiment [10] has as its system Staphylococcus aureus. Briefly: Soap Plug Test. Conditions: 1% in sodium stearate soap plug, 37° C., 17 hours.
Experiment [11] has as its system Escherichia coli. Briefly: Microbiocide Testing Procedure Using Agar. Conditions: nutrient agar, 37° C., read-out: Minimum Inhibitory Concentration. How it is done:
(§1) This test measures the bactericidal and fungicidal properties of a compound when in contact with a growing bacterium or fungi in an artificial medium. […] The treated agar mixture is then allowed to come to room temperature and solidify. Cells of the particular organism are then streaked on the surface of the solidified agar and are then incubated for such lengths of time that untreated samples containing no toxicant show luxurious growth typical of the particular organism. This time varies from 24 hours to one week, depending on the particular organism. The fungi are incubated at 30° C. and the bacteria are incubated at 37° C. Nutrient agar is used as the medium in this test for the bacteria. Potato dextrose agar is used as the medium for the fungi.

Experiment [12] deals with Staphylococcus aureus. In words: Microbiocide Testing Procedure Using Agar. Conditions: nutrient agar, 37° C., read-out: Minimum Inhibitory Concentration. How it is done: as §1
Experiment [13] has as its system Aspergillus niger. In words: Microbiocide Testing Procedure Using Agar. Conditions: potato dextrose agar, 30° C., read-out: Minimum Inhibitory Concentration. How it is done:
as §1

The test system of experiment [14] is Penicillium italicum. In words: Microbiocide Testing Procedure Using Agar. Conditions: potato dextrose agar, 30° C. As to the method:
as §1

Where [15] appears, read: malt broth, one week, value printed in: partial control at this concentration.
[16] abbreviates: nutrient broth, one week, value printed in: partial control at this concentration.

In brackets after ≈: the same amount, converted by molar mass. Like-named read-outs stand apart in the source and are kept apart here. Where only a bound is given, the exact number is not on record here.

Take `O=C(CCl)Nc1cccc(O)c1` [A, reference compound]: the minimal effective concentration in experiment [1] (nutrient broth, one week, value printed in: partial control at this concentration, read-out: Lowest Effective Concentration (partial control)) came to 250 µg/mL; in experiment [3] (setting [15]), 500 µg/mL; in experiment [4] (setting [16]), 250 µg/mL. Also, the MIC in experiment [2] (malt broth, one week) was more than 500 µg/mL.
Consider `CC(C)NC(=O)Oc1cccc(NC(=O)CCl)c1` [B, reference compound], for which the MIC in experiment [1], in [2], in experiment [3] and in experiment [4] was more than 500 µg/mL each time.
Consider `O=C(CBr)Nc1cccc(O)c1` [Compound 1, 3'-hydroxybromoacetanilide], for which the “Zone of Biological Inhibition (radius)” value is listed as 0 mm in experiment [5]; 3 mm in experiment [6]; 2 mm in experiment [7]; 2 mm in [8]; 1 mm in [9]; 12-15 mm in [10]. Moreover, the MIC in experiment [1] (nutrient broth, one week) turned out to be 10 µg/mL (≈ 43.5 µM); in [2] (malt broth, one week), 100 µg/mL (≈ 435 µM). For the same compound, the minimal effective concentration came out at 25 µg/mL in experiment [3] (setting [15]) and 10 µg/mL in experiment [4] (setting [16]).
Consider `CNC(=O)Oc1cccc(NC(=O)CBr)c1` [Compound 2, 3'-N-methyl carbamoyloxy bromoacetanilide], for which the MIC in experiment [1] is 50 µg/mL (≈ 174 µM); in experiment [2], more than 50 µg/mL; in experiment [3], more than 50 µg/mL; in experiment [4] it was 50 µg/mL (≈ 174 µM).
As to `CC(C)NC(=O)Oc1cccc(NC(=O)CBr)c1` [Compound 3], the “Zone of Biological Inhibition (radius)” value in experiment [7] is 2 mm; in experiment [10], 6-8 mm. Further, the results for the MIC in experiment [1] and in [4] were 10 µg/mL (≈ 31.7 µM) and 25 µg/mL (≈ 79.3 µM), respectively. Besides, the minimal effective concentration in experiment [2] (read-out: Lowest Effective Concentration (partial control)) was found to be 100 µg/mL; in [3], 25 µg/mL.
In the case of `C=CCNC(=O)Oc1cccc(NC(=O)CBr)c1` [Compound 4], the MIC in [1] was 50 µg/mL (≈ 160 µM); in experiment [2], more than 50 µg/mL; in experiment [3] it was 50 µg/mL (≈ 160 µM); in [4] it was more than 50 µg/mL.
With `O=C(CBr)Nc1cccc(OC(=O)NC2CCCCC2)c1` [Compound 5], the figures for the MIC in experiment [1] and in experiment [2] were 50 µg/mL (≈ 141 µM) and more than 50 µg/mL, respectively. For the same compound, the minimal effective concentration in experiment [3] and in experiment [4] was 50 µg/mL each time.
As to `O=C(CBr)Nc1ccc(O)cc1` [Compound 6], the MIC in [1] (nutrient broth, one week) stood at 25 µg/mL (≈ 109 µM); in experiment [2] (malt broth, one week), 50 µg/mL (≈ 217 µM); in experiment [3] (malt broth, one week), 50 µg/mL (≈ 217 µM); in experiment [4] (nutrient broth, one week), 25 µg/mL (≈ 109 µM).
Take `CC(C)CS(=O)(=O)Oc1cccc(NC(=O)CBr)c1` [Compound 7, m-Isobutylsulfonyloxy bromoacetanilide]: the MIC was more than 50 µg/mL in experiment [11]; 50 µg/mL (≈ 143 µM) in [12]; more than 50 µg/mL in experiment [13]; 10 µg/mL (≈ 28.6 µM) in experiment [14] (value printed in, not explained in Table III (Table II: partial control), read-out: Minimum Inhibitory Concentration (value in parentheses)); 50 µg/mL (≈ 143 µM) in experiment [1] (nutrient broth, one week); more than 50 µg/mL in experiment [2] (malt broth, one week). Also, the MIC in experiment [3] (malt broth, one week) was 50 µg/mL (≈ 143 µM); in [4] (nutrient broth, one week), more than 50 µg/mL.
Consider `O=C(CBr)Nc1cccc(OS(=O)(=O)c2ccccc2)c1` [Compound 8, m-Phenylsulfonyloxy bromoacetanilide], for which the MIC in [11] was more than 50 µg/mL; in experiment [12] it was 10 µg/mL (≈ 27 µM); in experiment [13] it was more than 50 µg/mL; in experiment [14] (read-out: Minimum Inhibitory Concentration), 50 µg/mL (≈ 135 µM); in experiment [1] (nutrient broth, one week) it was 50 µg/mL (≈ 135 µM); in experiment [2] (malt broth, one week) it was more than 50 µg/mL. Further, the MIC in experiment [3] (malt broth, one week) is 50 µg/mL (≈ 135 µM); in [4] (nutrient broth, one week), more than 50 µg/mL.
As for `O=C(Nc1ccc(Cl)cc1)Nc1ccc(Cl)c(Cl)c1` [TCC, 3,4,4-trichlorocarbanilide, reference compound], the figures for the “Zone of Biological Inhibition (radius)” value in experiment [7] and in experiment [10] were 0 mm and 5 mm, respectively.

The values are drawn from patent publication US4081474A, “Sulfonyloxy bromoacetanilides and their utility as biocides” (Stauffer Chemical Company, priority 1976, dated 1978).
